The test system of one assay is HT-29. Kind of assay: Growth inhibition of human HT-29 cells by MTT assay. It is filed as functional.
Another assay has as its system A549. Description: Growth inhibition of human A549 cells by MTT assay. It is filed as functional. (Tetrazolium dyes change colour on reduction, which living cells bring about.)
The next assay deals with RAW264.7. Description: Antiinflammatory activity in mouse RAW264.7 cells assessed as inhibition of LPS-stimulated TNFalpha production at 100 nM pretreated 1 hr before LPS challenge measured after 24 hrs by sandwich ELISA relative to control. It is filed as functional. Background: An ELISA detects its analyte on a solid surface through an enzyme-linked reagent.
For another assay, the system named is HL-60. Kind of assay: Growth inhibition of human HL60 cells by MTT assay. It is filed as functional.
The next assay has as its system SK-OV-3. Kind of assay: Growth inhibition of human SKOV3 cells by MTT assay. It is filed as functional.
The test system of another assay is A2780. Kind of assay: Cytotoxicity against human A2780 cells. It is filed as functional, cell-based.

Data on seven compounds can be found in ChEMBL document CHEMBL1155373, “Triterpene compounds isolated from Acer mandshuricum and their anti-inflammatory activity” (Bioorg Med Chem Lett, 2010).

Each structure is given as a SMILES string.

The term GI50 denotes the concentration that inhibits growth by half. What is called inhibition is the drop in the measured response relative to a control, in per cent. As a reminder, the IC50 is the point on the concentration scale where inhibition reaches its midpoint.

As for `CC(=O)O[C@H]1CC[C@@]2(C)[C@@]3(OC[C@@H](OO3)[C@]3(C)[C@@]2(C)CC[C@@]2(C)[C@@H]4CC(C)(C)CC[C@]4(C)CC[C@]32C)C1(C)C` [ACERANOL ACETATE], the GI50 in the assay on HT-29 is 14.6 µM; with A549 it was 11.4 µM; in the assay with HL-60 it was 13.7 µM; in the assay on SK-OV-3, 12.8 µM. Further, the inhibition at 0.1 µM in the assay on RAW264.7 was found to be 21%.
With `C[C@H]1C(=O)CC[C@@H]2[C@]1(C)CC[C@H]1[C@@]2(C)CC[C@@]2(C)[C@@H]3CC(C)(C)CC[C@]3(C)CC[C@]12C` [FRIEDELINE], the concentration for 50% growth inhibition (GI50) in the assay on HT-29 came out at 13.5 µM; in the assay on A549, 11.1 µM; in the assay with HL-60, 12.2 µM; in the assay on SK-OV-3, 12.7 µM. Moreover, the inhibition at 0.1 µM in the assay with RAW264.7 worked out at 23.5%.
As to `CC(=O)O[C@H]1CC[C@@H]2C(=CC[C@H]3[C@@]2(C)CC[C@@]2(C)[C@@H]4CC(C)(C)CC[C@]4(C)CC[C@]32C)C1(C)C` [GLUTINOL ACETATE], the GI50 in the assay on HT-29 came to 16.3 µM; in the assay on A549, 17.9 µM; with HL-60, 16.2 µM; in the assay with SK-OV-3, 12.1 µM. In the assay with RAW264.7, the inhibition at 0.1 µM turned out to be 25.4%.
Take `CC1(C)CC[C@]2(C)CC[C@]3(C)[C@H]4CC=C5[C@@H](CC[C@H](O)C5(C)C)[C@]4(C)CC[C@@]3(C)[C@@H]2C1` [GLUTINOL]: the GI50 turned out to be 14.1 µM in the assay on HT-29, 11.6 µM in the assay on A549, 16 µM in the assay with HL-60 and 12.6 µM with SK-OV-3. Further, the inhibition at 0.1 µM in the assay on RAW264.7 was 16.9%.
Consider `O=C1c2c(O)ccc(O)c2C(=O)c2c(NCCNCCO)ccc(NCCNCCO)c21` [MITOXANTRONE], for which the GI50 amounted to 8.9 µM in the assay with HT-29, 8.3 µM in the assay on A549, 7.8 µM in the assay on HL-60 and 11 µM in the assay on SK-OV-3.
For the compound `CC[C@H](CC[C@@H](C)[C@H]1CC[C@H]2[C@@H]3CC=C4C[C@@H](O[C@@H]5O[C@H](CO)[C@@H](O)[C@H](O)[C@H]5O)CC[C@]4(C)[C@H]3CC[C@]12C)C(C)C` [SITOGLUSIDE], the concentration for 50% growth inhibition (GI50) in the assay with HT-29 turned out to be 46.8 µM; in the assay with A549, 35.5 µM; in the assay with HL-60, 50.8 µM; in the assay with SK-OV-3 it was 29.8 µM. Besides, the inhibition at 0.1 µM with RAW264.7 turned out to be 29.3%.
`CC(=O)O[C@H]1CC[C@]2(C)[C@H]3CC=C4[C@@H]5CC(C)(C)CC[C@]5(C)CC[C@@]4(C)[C@]3(C)CC[C@H]2C1(C)C` [beta-AMYRIN ACETATE]: the GI50 in the assay with HT-29 was found to be 12.5 µM; in the assay on A549, 11.4 µM; with HL-60 it was 14.6 µM; in the assay on SK-OV-3, 14.6 µM. In addition, the inhibition at 0.1 µM in the assay with RAW264.7 stood at 38.4%. Moreover, the IC50 in the assay with A2780 was 12.5 µg/mL.
